*1 amine or outer side, *2 acyl side, *3 side chain or, on linkers, in order; H or OH if unused. Where a SMILES comes first, the peptide text is derived from it. Bridges are numbered along the chain shown (N, C = ends). [ ]: non-standard residue; d: D form. The star is where a group is joined. ξ: configuration not given here. Phe(3-CF3) = N[C@@H](Cc1cccc(C(F)(F)F)c1)C(=O)O; Phe(4-COOH) = N[C@@H](Cc1ccc(C(=O)O)cc1)C(=O)O; Bip = N[C@@H](Cc1ccc(-c2ccccc2)cc1)C(=O)O; Phe(3-Me) = Cc1cccc(C[C@H](N)C(=O)O)c1; βAsp = O=C(O)[C@H](CC(=O)[*:2])N[*:1]; NH(CH2)12COOH = O=C(O)CCCCCCCCCCCCN*; Val(3-OH) = CC(C)(O)[C@H](N)C(=O)O; aIle = CC[C@@H](C)[C@H](N)C(=O)O; 4Pal = N[C@@H](Cc1ccncc1)C(=O)O; Aad = N[C@@H](CCCC(=O)O)C(=O)O; Cha = N[C@@H](CC1CCCCC1)C(=O)O; Thr(3ξ) = CC(O)[C@H](N)C(=O)O; dOrn = NCCC[C@@H](N)C(=O)O; dDab = NCC[C@@H](N)C(=O)O; Carboxymethyl = O=C(O)C*; NMeA = CN[C@@H](C)C(=O)O; Orn = NCCC[C@H](N)C(=O)O; Aun = NCCCCCCCCCCC(=O)O; Dab = NCC[C@H](N)C(=O)O; AEEA = NCCOCCOCC(=O)O
Target: T1, PD-1/PD-L1 interaction (PE-labeled human PD-L1-Ig binding to Jurkat cell line over-expressing human PD-1) (Homo sapiens, UniProt Q15116)
T1 construct: expressed in transfected cells; host or cells: Jurkat
Assay: Jurkat-PD-1 Cell Binding High-Content Screening Assay (CBA)
Conditions: Jurkat-hPD-1 cells, PE-labeled PD-L1-Ig 20 nM final; read-out: Jurkat HPD1 PDL1 IC50
Outline: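 Cells 8×10^3/well, DMEM + 10% FCS; cpd 2 h, 37 °C; PE–PD-L1-Ig 20 nM final, 1 h; PFA fix + Hoechst 33342, 3× dPBS wash; high-content imager.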

T1 sequence (Q15116 25-288): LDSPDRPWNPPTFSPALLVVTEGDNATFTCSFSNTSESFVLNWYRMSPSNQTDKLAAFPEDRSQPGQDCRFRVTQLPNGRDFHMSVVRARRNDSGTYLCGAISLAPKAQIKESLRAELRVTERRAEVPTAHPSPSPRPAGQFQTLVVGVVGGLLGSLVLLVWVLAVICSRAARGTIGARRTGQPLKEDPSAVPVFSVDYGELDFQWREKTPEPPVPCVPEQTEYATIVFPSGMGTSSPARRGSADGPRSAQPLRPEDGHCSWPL

Compared with `CC(C)C[C@H]1NC(=O)[C@H](C)N(C)C(=O)[C@H](Cc2ccc(OCC(=O)O)cc2)NC(=O)[C@H](Cc2ccc(-c3ccccc3)cc2)NC(=O)[C@H](Cc2ccc(OCC(=O)O)cc2)NC(=O)[C@H](Cc2c[nH]c3ccccc23)NC(=O)[C@H](CC(=O)O)NC(=O)[C@H](Cc2ccc(OCC(=O)O)cc2)NC(=O)[C@H]([C@@H](C)O)NC(=O)CSC[C@@H](C(=O)N[C@@H](CCN)C(=O)NCCOCCOCC(=O)NCCCCCCCCCCC(=O)O)NC(=O)[C@H](CCC(=O)O)NC(=O)[C@H](C(C)C)NC(=O)[C@H](CC2CCCCC2)NC(=O)[C@H](CCN)NC1=O` [Example 1392] ({CH2CO}-TY(Carboxymethyl)DWY(Carboxymethyl)[Bip]Y(Carboxymethyl)[NMeA][dL][Dab][Cha]VEC[Dab][AEEA][Aun]-OH; thioether N-14), `Cc1cccc(C[C@@H]2NC(=O)[C@H](CC(=O)O)NC(=O)[C@H](Cc3ccc(C(=O)O)cc3)NC(=O)[C@H](Cc3ccncc3)NC(=O)CSC[C@@H](C(=O)N[C@@H](CCN)C(=O)NCCOCCOCC(=O)NCCCCCCCCCCC(=O)O)NC(=O)[C@H](CCC(=O)O)NC(=O)[C@H](C(C)(C)O)NC(=O)[C@H](CC3CCCCC3)NC(=O)[C@H](CCN)NC(=O)[C@@H](CC(C)C)NC(=O)[C@H](C)N(C)C(=O)[C@H](Cc3ccc(OCC(=O)O)cc3)NC(=O)[C@H](Cc3ccc(-c4ccccc4)cc3)NC(=O)[C@H](Cc3ccc(OCC(=O)O)cc3)NC2=O)c1` [Example 1427] ({CH2CO}-[4Pal][Phe(4-COOH)]D[Phe(3-Me)]Y(Carboxymethyl)[Bip]Y(Carboxymethyl)[NMeA][dL][Dab][Cha][Val(3-OH)]EC[Dab][AEEA][Aun]-OH; thioether N-14) is 1.8-fold higher in IC50: 62.5 nM for the first, 111 nM for the second.

Going from `CC(C)C[C@@H]1NC(=O)[C@H](Cc2c[nH]c3ccccc23)NC(=O)[C@H](CC(=O)O)NC(=O)[C@H](Cc2ccc(OCC(=O)O)cc2)NC(=O)[C@H](Cc2ccncc2)NC(=O)CSC[C@@H](C(=O)N[C@@H](CC(N)=O)C(=O)N[C@@H](CC(=O)NCCOCCOCC(=O)NCCCCCCCCCCC(=O)O)C(=O)O)NC(=O)[C@H](CO)NC(=O)[C@H](C(C)C)NC(=O)[C@H](CC2CCCCC2)NC(=O)[C@H](CC(N)=O)NC(=O)[C@@H](CC(C)C)NC(=O)[C@H](C)N(C)C(=O)[C@H](C(C)C)NC(=O)[C@H](Cc2ccc(-c3ccccc3)cc2)NC1=O` [Example 2022] ({CH2CO}-[4Pal]Y(Carboxymethyl)DWL[Bip]V[NMeA][dL]N[Cha]VSCN[βAsp][AEEA][Aun]-OH; thioether N-14) to `CC(C)C[C@@H]1NC(=O)[C@H](Cc2c[nH]c3ccccc23)NC(=O)[C@H](CC(=O)O)NC(=O)[C@H](Cc2ccncc2)NC(=O)[C@H](Cc2ccc(OCC(=O)O)cc2)NC(=O)CSC[C@@H](C(=O)N[C@@H](CCCN)C(=O)NCCOCCOCC(=O)NCCCCCCCCCCC(=O)O)NC(=O)[C@H](CO)NC(=O)[C@H](C(C)C)NC(=O)[C@H](CC2CCCCC2)NC(=O)[C@H](CCN)NC(=O)[C@@H](CC(C)C)NC(=O)[C@H](C)N(C)C(=O)[C@H](C(C)C)NC(=O)[C@H](Cc2ccc(-c3ccccc3)cc2)NC1=O` [Example 1090] ({CH2CO}-Y(Carboxymethyl)[4Pal]DWL[Bip]V[NMeA][dL][Dab][Cha]VSC[Orn][AEEA][Aun]-OH; thioether N-14), the IC50 falls from 129 nM to 8.3 nM (16-fold).

`Cc1cccc(C[C@@H]2NC(=O)[C@H](CC(=O)O)NC(=O)[C@H](Cc3ccc(OCC(=O)O)cc3)NC(=O)[C@H](CCCNC(=N)N)NC(=O)CSC[C@@H](C(=O)N[C@@H](CCN)C(=O)NCCCCCCCCCCC(=O)O)NC(=O)[C@H](C(C)O)NC(=O)[C@H](C(C)C)NC(=O)[C@H](CC3CCCCC3)NC(=O)[C@H](CCN)NC(=O)[C@@H](CC(C)C)NC(=O)[C@H](C)N(C)C(=O)[C@H](Cc3ccc(OCC(=O)O)cc3)NC(=O)[C@H](Cc3ccc(-c4ccccc4)cc3)NC(=O)[C@H](CCC(=O)O)NC2=O)c1` (stereo partly drawn) [Example 2306] ({CH2CO}-RY(Carboxymethyl)D[Phe(3-Me)]E[Bip]Y(Carboxymethyl)[NMeA][dL][Dab][Cha]V[Thr(3ξ)]C[Dab][Aun]-OH; thioether N-14) and `Cc1cccc(C[C@@H]2NC(=O)[C@H](CC(=O)O)NC(=O)[C@H](Cc3ccc(C(=O)O)cc3)NC(=O)[C@H](Cc3ccc(OCC(=O)O)cc3)NC(=O)CSC[C@@H](C(=O)N[C@@H](CCN)C(=O)NCCCCCCCCCCC(=O)O)NC(=O)[C@H](CCCC(=O)O)NC(=O)[C@H](C(C)C)NC(=O)[C@H](CC3CCCCC3)NC(=O)[C@H](CCN)NC(=O)[C@@H](CC(C)C)NC(=O)[C@H](C)N(C)C(=O)[C@H](C(C)C)NC(=O)[C@H](Cc3ccc(-c4ccccc4)cc3)NC(=O)[C@H](C(C)C)NC2=O)c1` [Example 2214] ({CH2CO}-Y(Carboxymethyl)[Phe(4-COOH)]D[Phe(3-Me)]V[Bip]V[NMeA][dL][Dab][Cha]V[Aad]C[Dab][Aun]-OH; thioether N-14) are within 1.5-fold of each other in IC50: 14.3 nM for the first, 16.3 nM for the second.

Going from `CC(C)C[C@@H]1NC(=O)[C@H](Cc2c[nH]c3ccccc23)NC(=O)[C@H](CC(=O)O)NC(=O)[C@H](Cc2ccc(OCC(=O)O)cc2)NC(=O)[C@H](Cc2ccccc2)NC(=O)CSC[C@@H](C(=O)N[C@@H](CCN)C(=O)NCCCCCCCCCCC(=O)O)NC(=O)[C@H](CCC(N)=O)NC(=O)[C@H](C(C)C)NC(=O)[C@H](CC(C)C)NC(=O)[C@H](CC(N)=O)NC(=O)[C@@H](CC(C)C)NC(=O)[C@H](C)N(C)C(=O)[C@H](C(C)C)NC(=O)[C@H](Cc2ccc(-c3ccccc3)cc2)NC1=O` [Example 1346] ({CH2CO}-FY(Carboxymethyl)DWL[Bip]V[NMeA][dL]NLVQC[Dab][Aun]-OH; thioether N-14) to `CC[C@@H](C)[C@@H]1NC(=O)[C@H](Cc2ccc(-c3ccccc3)cc2)NC(=O)[C@H](CC(C)C)NC(=O)[C@H](Cc2c[nH]c3ccccc23)NC(=O)[C@H](CC(=O)O)NC(=O)[C@H](Cc2ccc(C(=O)O)cc2)NC(=O)[C@H](Cc2ccc(OCC(=O)O)cc2)NC(=O)CSC[C@@H](C(=O)NCCOCCOCC(=O)N[C@H](CCCN)C(=O)NCCCCCCCCCCC(=O)O)NC(=O)[C@H](CO)NC(=O)[C@H](C(C)C)NC(=O)[C@H](CC2CCCCC2)NC(=O)[C@H](CCN)NC(=O)[C@@H](CC(C)C)NC(=O)[C@H](C)N(C)C1=O` [Example 2034] ({CH2CO}-Y(Carboxymethyl)[Phe(4-COOH)]DWL[Bip][aIle][NMeA][dL][Dab][Cha]VSC[AEEA][dOrn][Aun]-OH; thioether N-14), the IC50 falls from 113 nM to 16.9 nM (6.7-fold). The second is the more potent here.

`Cc1cccc(C[C@@H]2NC(=O)[C@H](CC(=O)O)NC(=O)[C@H](Cc3ccc(OCC(=O)O)cc3)NC(=O)[C@H](C(C)O)NC(=O)CSC[C@@H](C(=O)N[C@@H](CCN)C(=O)NCCCCCCCCCCC(=O)O)NC(=O)[C@H](C(C)O)NC(=O)[C@H](C(C)C)NC(=O)[C@H](CC3CCCCC3)NC(=O)[C@H](CCN)NC(=O)[C@@H](CC(C)C)NC(=O)[C@H](C)N(C)C(=O)[C@H](Cc3ccc(C(=O)O)cc3)NC(=O)[C@H](Cc3ccc(-c4ccccc4)cc3)NC(=O)[C@H](Cc3ccc(C(=O)O)cc3)NC2=O)c1` (stereo partly drawn) [Example 2311] ({CH2CO}-[Thr(3ξ)]Y(Carboxymethyl)D[Phe(3-Me)][Phe(4-COOH)][Bip][Phe(4-COOH)][NMeA][dL][Dab][Cha]V[Thr(3ξ)]C[Dab][Aun]-OH; thioether N-14) and `CC(C)C[C@H]1NC(=O)[C@H](C)N(C)C(=O)[C@H](C(C)C)NC(=O)[C@H](Cc2ccc(-c3ccccc3)cc2)NC(=O)[C@H](C(C)C)NC(=O)[C@H](Cc2c[nH]c3ccccc23)NC(=O)[C@H](CC(=O)O)NC(=O)[C@H](Cc2ccc(OCC(=O)O)cc2)NC(=O)[C@H](Cc2ccncc2)NC(=O)CSC[C@@H](C(=O)N[C@@H](CCCCN)C(=O)NCCOCCOCC(=O)NCCCCCCCCCCC(=O)O)NC(=O)[C@H](CO)NC(=O)[C@H](C(C)C)NC(=O)[C@H](CC2CCCCC2)NC(=O)[C@H](CCN)NC1=O` [Example 2100] ({CH2CO}-[4Pal]Y(Carboxymethyl)DWV[Bip]V[NMeA][dL][Dab][Cha]VSCK[AEEA][Aun]-OH; thioether N-14) are within 1.5-fold of each other in IC50: 21.3 nM for the first, 21.7 nM for the second.

Same assay, conditions: PE-labeled PD-L1-Ig 20 nM final, Jurkat-hPD-1 cells; read-out: Jurkat HPD1 PDL1 IC50

`Cc1cccc(C[C@@H]2NC(=O)[C@H](CC(=O)O)NC(=O)[C@H](Cc3ccc(OCC(=O)O)cc3)NC(=O)[C@H](C(C)O)NC(=O)CSC[C@@H](C(=O)N[C@@H](CCN)C(=O)NCCCCCCCCCCC(=O)O)NC(=O)[C@H](CO)NC(=O)[C@H](Cc3cnc[nH]3)NC(=O)[C@H](CC3CCCCC3)NC(=O)[C@H](CCN)NC(=O)[C@@H](CC(C)C)NC(=O)[C@H](C)N(C)C(=O)[C@H](Cc3ccc(OCC(=O)O)cc3)NC(=O)[C@H](Cc3ccc(-c4ccccc4)cc3)NC(=O)[C@H](Cc3ccc(OCC(=O)O)cc3)NC2=O)c1` (stereo partly drawn) [Example 2426] ({CH2CO}-[Thr(3ξ)]Y(Carboxymethyl)D[Phe(3-Me)]Y(Carboxymethyl)[Bip]Y(Carboxymethyl)[NMeA][dL][Dab][Cha]HSC[Dab][Aun]-OH; thioether N-14) and `CC(=O)NCCCC[C@@H]1NC(=O)[C@H](C(C)(C)O)NC(=O)[C@H](CC2CCCCC2)NC(=O)[C@H](CCN)NC(=O)[C@@H](CC(C)C)NC(=O)[C@H](C)N(C)C(=O)[C@H](CCC(N)=O)NC(=O)[C@H](Cc2ccc(-c3ccccc3)cc2)NC(=O)[C@H](Cc2ccc(C(=O)O)cc2)NC(=O)[C@H](Cc2cccc(C(F)(F)F)c2)NC(=O)[C@H](CC(=O)O)NC(=O)[C@H](Cc2ccc(OCC(=O)O)cc2)NC(=O)[C@H](Cc2ccc(OCC(=O)O)cc2)NC(=O)CSC[C@@H](C(=O)N[C@H](CCN)C(=O)NCCCCCCCCCCCCC(=O)O)NC1=O` [Example 2599] ({CH2CO}-Y(Carboxymethyl)Y(Carboxymethyl)D[Phe(3-CF3)][Phe(4-COOH)][Bip]Q[NMeA][dL][Dab][Cha][Val(3-OH)]K(Ac)C[dDab]-{NH(CH2)12COOH}; thioether N-14) are within 1.5-fold of each other in IC50: 36 nM for the first, 28.2 nM for the second.
